Assay results: patent US11913884B2, “Visible light-activated dyes and methods of use thereof” (William Marsh Rice University, priority 2019, dated 2024)
“And” between values parts separate entries of the source, which are not always exact repeats. Equal values may be shown once.

Key:
[1] = Photoactivation (turn-on) of thio-caged fluorophores in solution by light irradiation; assay type: physicochemical
From the text: To determine whether a minimal one atom sulfur-for-oxygen substitution within fluorophores can lead to fluorescence quenching, thio-caged Nile Red (SNile Red, FIG. 1) was synthesized, in which a carbonyl group was replaced with a thiocarbonyl moiety. Treatment of Nile Red with Lawesson's reagent in refluxing benzene produced the desired SNile Red in a yield of 40%. […] Irradiation of SNile Red with red light (615 nm, 0.4 μW cm-2) led to the regeneration of fluorescent Nile Red in a high yield (FIG. 2A). The absorption maxima of SNile Red at 298, 368 and 652 nm were blue-shifted after desulfuration to 315 and 556 nm, in a good agreement with the absorption spectrum of authentic synthesized Nile Red (FIG. 2B). The A556/A652 value, representing the ratio of the absorbance maxima of Nile Red and SNile Red, increased from 0.25 to 30 after desulfuration reaction (FIG. 2B). Upon irradiation with red light, the fluorescence intensity of the desulfurated material at 626 nm increased 280-fold, accompanied by a change in fluorescence from dark to red (FIG. 2C). To evaluate the proper light source for SNile Red photoactivation, SNile Red was irradiated with either 470 nm, 615 nm, or 850 nm light for different times and fluorescence intensities at 626 nm were recorded. […] To further characterize the photoactivated product of SNile Red, ^1H NMR and ESI-MS spectral changes were measured in the process of photoactivation (FIG. 2A). […] Signals corresponding to phenyl moiety protons at 8.64, 8.62, 7.85, 7.73, 7.36, 7.04, and 6.79 ppm gradually disappeared, and were replaced by new signals appearing at 8.57, 8.13, 7.81, 7.72, 7.63, 6.85, 6.69 and 6.30 ppm, respectively. […] The photoactivated product was also characterized by ESI-mass spectrometric analysis FIG. 3). The observed m/z 319.2 corresponding to Nile Red confirms the photoactivation product of SNile Red is its oxo form. Both dialkylthioketones and diarylthioketones are known to undergo photo-oxidation reaction under oxygen and light to give the corresponding ketones (Coyle, 1985, Corsaro and Pistara, 1998). To investigate the effects of dissolved oxygen and light on the photoactivation of thio-caged fluorophores, the time profile of the fluorescence of SNile Red was measured in the presence or absence of light, or oxygen. […] To study the effect of oxygen during the photoactivation, the inventors prepared an oxygen-free SNile Red solution by bubbling nitrogen gas and irradiated at 615 nm. […] Inspired by the photoactivation mechanism of thioketones, it was hypothesized that singlet oxygen generated by self-sensitization can be the active species to oxidize thiocarbonyl groups within fluorophores (Coyle, 1985 and Corsaro and Pistara, 1998). […] The singlet oxygen quantum yield (DA) was further determined to be 0.36 with considering the absorption correction factor over the 600-630 nm region (Bonacin et al., 2009 and Adarsh et al., 2010) by referring to methylene blue (MB) (ΦΔ,MB=0.57 in dichloromethane; Li et al., 2013).
Encouraged by the excellent photoactivation properties of SNile Red, Lawesson's reagent was employed to introduce thiocarbonyl moieties into several different fluorophores, such as phthalimide (PI), coumarin (Cou) and acridone (ACD), obtaining yields ranging from 20-80% (FIG. 1). Next, characterization of the spectroscopic and photochemical properties of these thiocaged fluorophores and their oxidized products using UV-vis and fluorescence spectroscopies was performed (Table 1). […] Double thiocarbonyl substitution on 4-dimethylaminophthalimide (4-DMAP, FIG. 1) produced an even larger bathochromic shift of 166 nm. […] It was hypothesized that the red-shift and enhanced absorption seen with thiocarbonyl compounds were due to the reduced energy gap between the HOMO-LUMO in these fluorophores. This is consistent with the computational results discussed below. […]

[2] = system: adipocytes differentiated from 3T3-L1 cells; experiment: Co-localization assay by confocal laser scanning microscopy; assay type: cell-based; conditions: 2 μM, 10 mins, after 488-nm laser for 30 s
Method: Before testing the utility of thio-caged fluorophores for investigating biological systems, the cytotoxicity of SNile Red in adipocytes was evaluated using Cell Counting Kit-8. At a concentration of 4 μM SNile Red, 90% of 3T3-L1 cells remained viable even after 24 hours (FIG. 10). Thio-caged dyes were then used to obtain subcellular structural data via fluorescence imaging of adipocytes. Nile Red and BODIPY are the fluorescent dyes most commonly used for lipid imaging (Corsaro and Pistara, 1998, Spiller et al., 1998, Tang et al., 2013). Confocal laser scanning microscopy (CLSM) was used to determine the specificity of SNile Red localization in adipocytes differentiated from 3T3-L1 cells. For colocalization studies, adipocytes were stained with 2 μM SNile Red and 100 nM BODIPY 493/503 for 10 mins.
3T3-L1 cells were differentiated to adipocytes according to the protocol from ATCC (Chemically-induced differentiation of at CC® CL-173TM (3T3-L1) using single-Component Commercially-available reagents). […]
After incubation of 2 μM SNile Red for 10 min, cells were washed with PBS (pH 7.4) twice and turned to confocal laser scanning microscope (CLSM). […] Differential interference contrast (DIC) and fluorescent images were processed and analyzed using ImageJ. The Pearson's Coefficient was calculated by ImageJ.

A556/A652 value ([1]; after desulfuration reaction): 30 | absorption maxima after desulfuration ([1]; after irradiation with red light (615 nm, 0.4 μW cm-2)): 315 nm and 556 nm | A556/A652 value ([1]; before desulfuration reaction): 0.25
Compound: CCN(CC)c1ccc2nc3c4ccccc4c(=S)cc-3oc2c1 [SNile Red]
fluorescence change at 626 nm with light of shorter wavelengths than 652 nm ([1]; 470 nm or 615 nm light): significant fluorescence enhancement | increase of fluorescence intensity at 626 nm ([1]; 615 nm light in air for 20 mins): 90 fold | activation by light out of the absorbance range ([1]; 850 nm, after 5 hrs): negligible activation | Turn-on (x-fold) ([1]; DMSO, footnote e: 470 nm, 0.4 μW cm^−2): 280^e x-fold | change of fluorescent spectrum ([1]; in the absence of light): no change | change of fluorescence intensity ([1]; oxygen-free solution (nitrogen bubbled), 615 nm, within 20 mins irradiation): no significant change | increase of fluorescence intensity at 626 nm (activation ratio) ([1]; upon irradiation with red light): 280 fold | colocalization with BODIPY 493/503 labeling [2]: more than 90%
